Reference: patent US20180177749A1, “USE OF CYP EXPRESSION TO DIRECT THERAPEUTIC INTERVENTION IN CANCER” (REGENTS OF THE UNIVERSITY OF MINNESOTA, priority 2016, published 2018)

What was measured:
MCF-7 cells = assay: JC-1 mitochondrial membrane potential staining, MCF-7; type: cell-based, human; conditions: HBB 20 μM 4 hours, (±)-14,15-EET 1 μM
Method: Cells were grown in chamber slides at 37° C. with 5% CO2 and treated with DMSO or HBB for 4 hours before JC-1 dye was added for the MCF-7 or MDA-MB-231 cell line. […] Images of red fluorescence (590 nm) and green fluorescence (530 nm) were acquired using an Olympus 1X70 microscope fitted with an Olympus DP70 digital camera (Olympus, Tokyo, Japan).

T47D = assay: MTT cell proliferation assay, T47D; type: cell-based, human
Method: The human breast cancer cell lines MCF-7, T47D, and MDA-MB-231 described above were grown in Minimal Essential Medium (MCF-7), RPMI 1640 with insulin (0.2 U/mL) and 1 mM Na pyruvate (T47D) or DMEM containing 10% fetal bovine serum (FBS) (MDA-MB-231), which was defined as complete medium (CM). Cells were grown at 37° C. in a 5% CO2 incubator. […] MTT was then added (5 mg/ml), and after 2 h of incubation, the plates were centrifuged. The supernatant was removed; DMSO was added, and the absorbance was read at 540 nm with a BioTek 96-well plate reader.

[1] = Plasma concentration after ip dosing; type: in vivo, mice; conditions: 1 hour after the daily dose, 4 mg/kg/day ip

For `CCCCCCNC(=N)NC(=N)NCc1ccccc1` [HBB, N1-hexyl-N5-benzyl-biguanide], the “mitochondrial membrane potential (ΔΨm), JC-1” value (MCF-7 cells) was “caused mitochondrial depolarization”, the “growth inhibition abrogated by concurrent (±)-14,15-EET” value (T47D; (±)-14,15-EET 1 μM, 24 hours) was “abrogated most of the inhibition” and the IC50 (T47D; Homo sapiens, ER+[PR+]) was 25.1 µM. The plasma concentration [1] was 530 nM.
